Source: paper PMC11243327, “Design, Synthesis, Antitumor, and Antiplasmodial Evaluation of New 7-Chloroquinoline–Benzimidazole Hybrids” (Molecules, 2024)
Where two headings read alike, the source gives them in different places.

Key:
[1] = test system: HeLa (human cervical adenocarcinoma); conditions: previously published result, cited from earlier work
HuT78 (T-cell lymphoma) [2] = test system: HuT78 (T-cell lymphoma); parameters: method as in PMID 36677600; conditions: previously published result, ref [19]; cited from earlier work
[3] = test system: HL-60 (acute promyelocytic leukemia); parameters: method as in PMID 36677600; conditions: previously published result, ref [19]; cited from earlier work
[4] = test system: THP-1 (acute monocytic leukemia); parameters: method as in PMID 36677600; conditions: previously published result, ref [19]; cited from earlier work
[5] = test system: CaCo-2 (human colorectal adenocarcinoma); conditions: previously published result, cited from earlier work
[6] = test system: MRC-5 (human fetal lung fibroblasts); parameters: method as in PMID 36677600; conditions: previously published result, ref [19]; cited from earlier work
HuT78 (T-cell lymphoma) [7] = test: Antiproliferative MTT assay, Hut78; assay type: cell-based, human; conditions: Homo sapiens, HuT78, 72 h, mean ± SD of three experiments
Method: (§1) The effect of the new synthesized compounds was tested on five human tumor cell lines, HeLa (human cervical adenocarcinoma; from ATCC), CaCo-2 (human colorectal adenocarcinoma), HL-60 (acute promyelocytic leukemia), HuT78 (T-cell lymphoma), and THP-1 (acute monocytic leukemia), as well as one non-tumor cell line, MRC-5 (human fetal lung fibroblasts). The MRC-5 cells were used between 24 and 26 passages. The cells were cultured in two different types of media: DMEM (Gibco Thermo Fisher Scinetific Inc., Runcorn, UK) and RPMI 1640 (Gibco, Thermo Fisher Scinetific Inc., UK). Both media were supplemented with 2 mM glutamine, fetal bovine serum (10%; heat inactivated), and antibiotics (100 U penicillin and 0.1 mg streptomycin). RPMI 1640 was additionally supplemented with 10 mM HEPES and 1 mM sodium pyruvate. Cells growing in a monolayer were cultured in DMEM, while cells growing in suspension were cultured in RPMI 1640. Cells were grown in humidified atmosphere under the conditions of 37 °C/5% CO2 gas in a CO2 incubator (IGO 150 CELLlife^TM, JOUAN, Thermo Fisher Scientific, Waltham, MA, USA).
(§2) Growth-inhibitory activity was assessed using a slightly modified procedure based on the National Cancer Institute’s protocol. Briefly, cells were seeded in 96-well microtiter plates and incubated for 24 h. They were then treated with 10^−7 to 10^−4 M concentrations of the tested compounds for an additional 72 h. After the treatment period, the effects of the tested compounds on the growth rate of the cells were examined using the MTT assay. Absorbance was measured at 595 nm using a microplate reader. The IC50 value, which represents a 50% inhibition of cell growth, and QC calculation were performed using the GraphPadPrism software (La Jolla, USA), v. 5.03. and Excel software, Office 365. The selectivity index was calculated according to the following formula: SI=IC50 value of normal cell line/IC50 value of cancer cell line
(§3) The effect of each concentration was analyzed by plotting the logarithm of the concentration of the evaluated compound against the corresponding percentage inhibition value using least squares.

[8] = test system: P. falciparum Dd2 (multiresistant), erythrocytic stage; test: Antiplasmodial HRP2 assay, PfDd2; assay type: cell-based, Plasmodium falciparum; conditions: Plasmodium falciparum, DD2, 72 h; chloroquine-resistant strain, three days incubation, HRP2-ELISA, mean ± SD, n ≥ 2; read-out: IC50 PfDd2
Method: (§4) Method used to evaluate the antiplasmodial activity of quinoline–benzimidazole hybrids against two P. falciparum strains, chloroquine-sensitive (Pf3D7) and chloroquine-resistant (PfDd2), was previously described. […] Chloroquine was used as a positive control.
(§5) In brief, 96-well plates were pre-coated with the tested compounds at 1:3 dilution before ring-stage parasites were added to the complete culture medium at a hematocrit of 1.5% and a parasitemia of 0.05%. […] All compounds were analyzed in duplicate in at least two independent experiments. The IC50 was determined by nonlinear regression analysis of the logarithmic concentration-response curves using the drc package v3.0-1 of R v4.1.0 [56].

[9] = test system: P. falciparum 3D7 (CQ-susceptible), erythrocytic stage; test: Antiplasmodial HRP2 assay, Pf3D7; assay type: cell-based, Plasmodium falciparum; conditions: Plasmodium falciparum, 3D7, 72 h; chloroquine-sensitive strain, three days incubation, HRP2-ELISA, mean ± SD, n ≥ 2; read-out: IC50 Pf3D7
Method: as §4, §5

[10] = test system: HL-60 (acute promyelocytic leukemia); test: Antiproliferative MTT assay, HL-60; assay type: cell-based, human; conditions: Homo sapiens, HL-60, 72 h, mean ± SD of three experiments
Method: as §1, §2, §3

[11] = test system: MRC-5 (human fetal lung fibroblasts); test: Antiproliferative MTT assay, MRC-5; assay type: cell-based; conditions: Homo sapiens, MRC5, non-tumor cell line, 72 h, mean ± SD of three experiments
Method: as §1, §2, §3

[12] = test system: THP-1 (acute monocytic leukemia); test: Antiproliferative MTT assay, THP-1; assay type: cell-based, human; conditions: Homo sapiens, THP-1, 72 h, mean ± SD of three experiments
Method: as §1, §2, §3

[13] = test system: CaCo-2 (human colorectal adenocarcinoma); test: Antiproliferative MTT assay, CaCo-2; assay type: cell-based; conditions: Homo sapiens, Caco-2, 72 h, mean ± SD of three experiments
Method: as §1, §2, §3

[14] = test system: HeLa (human cervical adenocarcinoma); test: Antiproliferative MTT assay, HeLa; assay type: cell-based; conditions: Homo sapiens, HeLa, 72 h, mean ± SD of three experiments
Method: as §1, §2, §3

[15] = Antiproliferative MTT assay, whole panel of cell lines; assay type: cell-based; conditions: human, range over the cell lines tested, read-out: IC50 (cytotoxicity) across non-tumor and tumor cell lines
Method: as §1, with “Cells growing in a monolayer were cultured in DMEM, while cells growing in suspension were cultured in RPMI 1640. Cells were grown in humidified atmosphere under the conditions of 37 °C/5% CO2 gas in a CO2 incubator (IGO 150 CELLlife^TM, JOUAN, Thermo Fisher Scientific, Waltham, MA, USA).” left out
Growth-inhibitory activity was assessed using a slightly modified procedure based on the National Cancer Institute’s protocol. […] Absorbance was measured at 595 nm using a microplate reader. […] The selectivity index was calculated according to the following formula: SI=IC50 value of normal cell line/IC50 value of cancer cell line
as §3

Row | IC50 (HuT78 (T-cell lymphoma) [7]) [nM] | IC50 [8] [nM] | IC50 [9] [nM] | IC50 [10] [nM] | IC50 [12] [nM] | melting point | IC50 [13] [nM] | IC50 [14] [nM] | Structure (SMILES) | IC50 ([1]; ref [19]) [nM] | IC50 (HuT78 (T-cell lymphoma) [2]) [nM] | IC50 [3] [nM] | IC50 [4] [nM] | IC50 ([5]; ref [19]) [nM] | IC50 [6] [nM] | IC50 ([1]; ref [18]) [nM] | IC50 ([5]; ref [18]) [nM] | IC50 [11] [nM] | IC50 at 72 h [15] [nM]
1 |  |  |  |  |  |  |  |  | O=c1[nH]cc(F)c(=O)[nH]1 [Compound 5-FU, 5-fluorouracil] | 8200 | > 100000 | 76400 | > 100000 | 5900 | 54100 |  |  |  | 
2 | 92000 ± 6100 | 36.9 ± 17.7 | 58.5 ± 5.9 | > 100000 | > 100000 |  |  |  | N=C(NC1CCCC1)c1ccc2nc(-c3ccc(OCCNc4ccnc5cc(Cl)ccc45)cc3)[nH]c2c1 [Compound 10d] |  |  |  |  |  |  | > 100000 | > 100000 | 99200 ± 8300 | 
3 | 3700 ± 5200 | 21.5 ± 2.5 | 11.1 ± 0.3 | 3300 ± 1100 | 6100 ± 6900 | 222 °C | 4700 ± 4000 | 5600 ± 1300 | COc1cc(-c2nc3ccc(Cl)cc3[nH]2)ccc1OCCNc1ccnc2cc(Cl)ccc12 [Compound 12b, 7-chloro-N-{[4-(5(6)-chloro-benzo[d]imidazole-2-yl)-2-methoxyphenoxy]ethyl}quinolin-4-amine] |  |  |  |  |  |  |  |  | 3000 ± 1600 | 
4 | 2400 ± 1100 | 15.4 ± 2 | 9.7 ± 0.2 | 200 | 3100 ± 800 | 218 to 219 °C | 2100 ± 300 | 2700 ± 200 | COc1ccc2nc(-c3ccc(OCCNc4ccnc5cc(Cl)ccc45)c(OC)c3)[nH]c2c1 [Compound 12c, 7-chloro-N-{[4-(5(6)-methoxy-benzo[d]imidazole-2-yl)-2-methoxyphenoxy]ethyl}quinolin-4-amine] |  |  |  |  |  |  |  |  | 1100 ± 800 | 
5 | 1600 ± 800 | 4.8 ± 0.3 | 2.6 ± 0.7 | 400 ± 200 | 3000 ± 800 | 200 to 202 °C | 1100 ± 400 | 3000 ± 2300 | Clc1ccc2c(NCCCOc3ccc(-c4nc5ccccc5[nH]4)cc3)ccnc2c1 [Compound 13a] |  |  |  |  |  |  |  |  | 300 ± 200 | 
6 | 300 ± 200 | 3.9 ± 1.1 | 2.4 ± 1.4 | 200 ± 100 | 2100 ± 700 | 198 to 200 °C | 1600 ± 400 | 600 ± 100 | Clc1ccc2c(NCCCOc3ccc(-c4nc5ccc(Cl)cc5[nH]4)cc3)ccnc2c1 [Compound 13b] |  |  |  |  |  |  |  |  | 400 ± 100 | 
7 | 1100 ± 500 | 11.9 ± 1.6 | 12.8 ± 0.5 | 300 ± 200 | 2600 | 212 °C (dec.) | 1000 ± 500 | 200 ± 200 | COc1ccc2nc(-c3ccc(OCCCNc4ccnc5cc(Cl)ccc45)cc3)[nH]c2c1 [Compound 13c] |  |  |  |  |  |  |  |  | 2700 ± 500 | 
8 | 900 ± 600 | 14.2 ± 1.2 | 5 ± 1.4 | 400 ± 100 | 6800 ± 3500 | 219 to 221 °C | 1500 ± 1100 | 1500 ± 1000 | Clc1ccc2c(NCCCOc3ccc(-c4nc5ccc(Cl)cc5[nH]4)cc3Br)ccnc2c1 [Compound 14b, N-{[2-bromo-4-(5(6)-chloro-1H-benzo[d]imidazole-2-yl)phenoxy]propyl}-7-chloroquinolin-4-amine] |  |  |  |  |  |  |  |  | 2000 ± 1800 | 
9 | 600 ± 100 | 11.8 ± 3.2 | 11.4 ± 4 | 300 ± 100 | 5200 ± 1800 | 230 °C (dec.) | 1600 ± 900 | 800 ± 700 | COc1ccc2nc(-c3ccc(OCCCNc4ccnc5cc(Cl)ccc45)c(Br)c3)[nH]c2c1 [Compound 14c, N-{[2-bromo-4-(5(6)-methoxy-1H-benzo[d]imidazole-2-yl)phenoxy]propyl}-7-chloroquinolin-4-amine] |  |  |  |  |  |  |  |  | 400 ± 100 | 
10 | 1500 ± 300 | 11.2 ± 0.5 | 4.4 ± 0.3 | 400 ± 100 | 2200 ± 500 | 179 to 181 °C | 800 ± 100 | 400 ± 100 | COc1cc(-c2nc3ccccc3[nH]2)ccc1OCCCNc1ccnc2cc(Cl)ccc12 [Compound 15a, N-{[4-(1H-benzo[d]imidazole-2-yl)-2-methoxyphenoxy]propyl}-7-chloroquinolin-4-amine] |  |  |  |  |  |  |  |  | 300 ± 100 | 
11 | 700 ± 400 | 5.2 ± 0.5 | 4.7 ± 1.5 | 200 ± 100 | 2500 ± 300 | 190 to 192 °C | 1100 ± 600 | 300 ± 100 | COc1cc(-c2nc3ccc(Cl)cc3[nH]2)ccc1OCCCNc1ccnc2cc(Cl)ccc12 [Compound 15b, 7-chloro-N-{[4-(5(6)-chloro-benzo[d]imidazole-2-yl)-2-methoxyphenoxy]propyl}quinolin-4-amine] |  |  |  |  |  |  |  |  | 300 | 
12 | 700 ± 600 | 16.5 ± 5.7 | 6.9 ± 1.7 | 200 | 2200 ± 300 | 220 °C (dec.) | 1500 ± 300 | 1200 ± 600 | COc1ccc2nc(-c3ccc(OCCCNc4ccnc5cc(Cl)ccc45)c(OC)c3)[nH]c2c1 [Compound 15c, 7-chloro-N-{[4-(5(6)-methoxy-benzo[d]imidazole-2-yl)-2-methoxyphenoxy]propyl}quinolin-4-amine] |  |  |  |  |  |  |  |  | 700 ± 600 | 
13 | 12800 ± 5500 | 22.9 ± 4.3 | 28.7 ± 9.4 | 19500 ± 1100 | 29600 ± 300 |  | > 100000 | > 100000 | COc1cc(-c2nc3ccc(C(=N)NC4CCCC4)cc3[nH]2)ccc1OCCCNc1ccnc2cc(Cl)ccc12 [Compound 15d] |  |  |  |  |  |  |  |  | 95200 ± 9700 | 12800 to 100000
